From PubChem BioAssay (NCI)
Values joined by “and” are separate entries in the source; they are usually repeats but may differ in a detail not shown here. Equal values may be shown once.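 In this assay, cells in 96-well plates receive the compound at five concentrations for 48 hours. Endpoints are linearly interpolated between the surrounding concentrations. The concentration for 50% growth inhibition is given as GI50. TGI: concentration producing complete growth inhibition.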

Assays:
Assay in all cases: growth of human tumour cells (NCI), 48 h
MALME-3M melanoma = tested on: MALME-3M melanoma
RPMI-8226 leukemia = tested on: RPMI-8226 leukemia
SK-MEL-28 melanoma = tested on: SK-MEL-28 melanoma
NCI-H522 lung = tested on: NCI-H522 lung
OVCAR-8 ovarian = tested on: OVCAR-8 ovarian
KM20L2 colon = tested on: KM20L2 colon
786-0 renal = tested on: 786-0 renal
SF-539 CNS = tested on: SF-539 CNS
NCI-H23 lung = tested on: NCI-H23 lung
DLD-1 colon = tested on: DLD-1 colon
OVCAR-4 ovarian = tested on: OVCAR-4 ovarian
UACC-257 melanoma = tested on: UACC-257 melanoma
SF-268 CNS = tested on: SF-268 CNS
M19-MEL melanoma = tested on: M19-MEL melanoma
RXF 393 renal = tested on: RXF 393 renal
U251 CNS = tested on: U251 CNS
NCI-H226 lung = tested on: NCI-H226 lung
HCT-116 colon = tested on: HCT-116 colon
SK-OV-3 ovarian = tested on: SK-OV-3 ovarian
M14 melanoma = tested on: M14 melanoma
HCC-2998 colon = tested on: HCC-2998 colon
HL-60(TB) leukemia = tested on: HL-60(TB) leukemia
IGROV1 ovarian = tested on: IGROV1 ovarian
SR leukemia = tested on: SR leukemia
CCRF-CEM leukemia = tested on: CCRF-CEM leukemia
SW-620 colon = tested on: SW-620 colon
SN12C renal = tested on: SN12C renal
LXFL 529 NSCLC = tested on: LXFL 529 NSCLC
HOP-62 NSCLC = tested on: HOP-62 NSCLC
EKVX NSCLC = tested on: EKVX NSCLC
HCT-15 colon = tested on: HCT-15 colon
SNB-19 CNS = tested on: SNB-19 CNS
HOP-92 NSCLC = tested on: HOP-92 NSCLC
ACHN renal = tested on: ACHN renal
K-562 leukemia = tested on: K-562 leukemia
SNB-75 CNS = tested on: SNB-75 CNS
DMS 114 small cell lung = tested on: DMS 114 small cell lung
HT29 colon = tested on: HT29 colon
HOP-18 NSCLC = tested on: HOP-18 NSCLC
UO-31 renal = tested on: UO-31 renal
SF-295 CNS = tested on: SF-295 CNS
SK-MEL-5 melanoma = tested on: SK-MEL-5 melanoma
MOLT-4 leukemia = tested on: MOLT-4 leukemia
DMS 273 small cell lung = tested on: DMS 273 small cell lung
A498 renal = tested on: A498 renal
UACC-62 melanoma = tested on: UACC-62 melanoma
COLO 205 colon = tested on: COLO 205 colon
A549 NSCLC = tested on: A549 NSCLC
CAKI-1 renal = tested on: CAKI-1 renal
TK-10 renal = tested on: TK-10 renal
OVCAR-3 ovarian = tested on: OVCAR-3 ovarian
NCI-H460 lung = tested on: NCI-H460 lung
SNB-78 CNS = tested on: SNB-78 CNS
OVCAR-5 ovarian = tested on: OVCAR-5 ovarian
LOX IMVI melanoma = tested on: LOX IMVI melanoma
KM12 colon = tested on: KM12 colon
XF 498 CNS = tested on: XF 498 CNS
SK-MEL-2 melanoma = tested on: SK-MEL-2 melanoma

Compound: O=C1c2ccccc2N2OC3C4CCC(C4)C3C12c1ccccc1 (stereo unspecified)
- TGI (MALME-3M melanoma): > 100 µM
- TGI (RPMI-8226 leukemia): > 100 µM
- TGI (SK-MEL-28 melanoma): > 100 µM
- TGI (NCI-H522 lung): > 100 µM
- TGI (OVCAR-8 ovarian): > 100 µM
- TGI (KM20L2 colon): > 100 µM
- TGI (786-0 renal): > 100 µM
- TGI (SF-539 CNS): > 100 µM
- TGI (NCI-H23 lung): > 100 µM
- TGI (DLD-1 colon): > 100 µM
- TGI (OVCAR-4 ovarian): > 100 µM
- TGI (UACC-257 melanoma): > 100 µM
- TGI (SF-268 CNS): > 100 µM
- TGI (M19-MEL melanoma): > 100 µM
- TGI (RXF 393 renal): 77.8 µM
- TGI (U251 CNS): > 100 µM
- TGI (NCI-H226 lung): > 100 µM
- TGI (HCT-116 colon): > 100 µM
- TGI (SK-OV-3 ovarian): > 100 µM
- TGI (M14 melanoma): > 100 µM
- TGI (HCC-2998 colon): > 100 µM
- TGI (HL-60(TB) leukemia): > 100 µM
- TGI (IGROV1 ovarian): > 100 µM
- TGI (SR leukemia): > 100 µM
- TGI (CCRF-CEM leukemia): > 100 µM
- TGI (SW-620 colon): > 100 µM
- TGI (SN12C renal): > 100 µM
- TGI (LXFL 529 NSCLC): > 100 µM
- TGI (HOP-62 NSCLC): > 100 µM
- TGI (EKVX NSCLC): > 100 µM
- TGI (HCT-15 colon): > 100 µM
- TGI (SNB-19 CNS): > 100 µM
- TGI (HOP-92 NSCLC): > 100 µM
- TGI (ACHN renal): > 100 µM
- TGI (K-562 leukemia): > 100 µM
- TGI (SNB-75 CNS): > 100 µM
- TGI (DMS 114 small cell lung): > 100 µM
- TGI (HT29 colon): > 100 µM
- TGI (HOP-18 NSCLC): > 100 µM
- TGI (UO-31 renal): > 100 µM
- TGI (SF-295 CNS): > 100 µM
- TGI (SK-MEL-5 melanoma): > 100 µM
- TGI (MOLT-4 leukemia): > 100 µM
- TGI (DMS 273 small cell lung): > 100 µM
- TGI (A498 renal): > 100 µM
- TGI (UACC-62 melanoma): > 100 µM
- TGI (COLO 205 colon): > 100 µM
- TGI (A549 NSCLC): > 100 µM

Compound: NCC(=O)OCN1C(=O)C2C3C=CC(C2C1=O)C1C2C(=O)N(COC(=O)CN)C(=O)C2C31 (stereo unspecified)
- TGI (RPMI-8226 leukemia): 72.5 µM and 59.7 µM
- TGI (SK-MEL-28 melanoma): 35.3 µM and 40.8 µM
- TGI (NCI-H522 lung): 25.9 µM
- TGI (OVCAR-8 ovarian): 47.4 µM and 39 µM
- TGI (KM20L2 colon): 52.9 µM and 81.9 µM
- TGI (786-0 renal): 40.7 µM and 36.8 µM
- TGI (SF-539 CNS): 68.9 µM and 38.2 µM
- TGI (NCI-H23 lung): 49.1 µM and 84.7 µM
- TGI (DLD-1 colon): 54.2 µM and 60.8 µM
- TGI (OVCAR-4 ovarian): 39.1 µM and 55.4 µM
- TGI (CAKI-1 renal): > 100 µM
- TGI (UACC-257 melanoma): > 100 µM and 77.6 µM
- TGI (SF-268 CNS): 41.1 µM and 48.6 µM
- TGI (M19-MEL melanoma): 45.1 µM and 37.9 µM
- TGI (RXF 393 renal): 37.9 µM and 42.3 µM
- TGI (TK-10 renal): > 100 µM
- TGI (U251 CNS): 45 µM and 38.7 µM
- TGI (NCI-H226 lung): > 100 µM
- TGI (HCT-116 colon): 33.6 µM and 30.7 µM
- TGI (SK-OV-3 ovarian): > 100 µM
- TGI (OVCAR-3 ovarian): 82.1 µM and 93.4 µM
- TGI (M14 melanoma): 35.3 µM and 33.9 µM
- GI50 (HCC-2998 colon): 31.2 µM and 69.9 µM
- TGI (HCC-2998 colon): 94.8 µM and > 100 µM
- TGI (HL-60(TB) leukemia): 28.5 µM and 37.4 µM
- TGI (IGROV1 ovarian): > 100 µM
- TGI (NCI-H460 lung): 35.8 µM and 34.3 µM
- TGI (CCRF-CEM leukemia): 52.6 µM and 49.8 µM
- TGI (SW-620 colon): 44.7 µM and 54.2 µM
- TGI (SNB-78 CNS): > 100 µM
- TGI (SN12C renal): 48.4 µM and 50.7 µM
- TGI (LXFL 529 NSCLC): 42.1 µM and > 100 µM
- GI50 (OVCAR-5 ovarian): 42.1 µM and 90 µM
- TGI (OVCAR-5 ovarian): > 100 µM
- TGI (HOP-62 NSCLC): > 100 µM
- TGI (LOX IMVI melanoma): 37.9 µM
- TGI (EKVX NSCLC): > 100 µM
- TGI (HCT-15 colon): 36.9 µM and 34.8 µM
- TGI (SNB-19 CNS): > 100 µM
- TGI (HOP-92 NSCLC): > 100 µM
- TGI (KM12 colon): 48.4 µM and 42.2 µM
- TGI (ACHN renal): 67.6 µM and 62.1 µM
- TGI (K-562 leukemia): 60.9 µM and > 100 µM
- TGI (SNB-75 CNS): 62.6 µM and > 100 µM
- TGI (DMS 114 small cell lung): 39 µM and 36.8 µM
- TGI (HT29 colon): > 100 µM
- TGI (HOP-18 NSCLC): 54.4 µM and 73.7 µM
- TGI (UO-31 renal): 97.7 µM and > 100 µM
- TGI (SF-295 CNS): > 100 µM
- TGI (SK-MEL-5 melanoma): 51.7 µM and 34 µM
- TGI (MOLT-4 leukemia): 69.8 µM and 42.2 µM
- TGI (DMS 273 small cell lung): 33.6 µM and 37.3 µM
- TGI (A498 renal): > 100 µM
- TGI (UACC-62 melanoma): 50.5 µM and 56 µM
- TGI (XF 498 CNS): 54.7 µM and 64.1 µM
- TGI (COLO 205 colon): 36.4 µM and 32.2 µM
- TGI (A549 NSCLC): 63.7 µM and 60.6 µM
- TGI (SK-MEL-2 melanoma): 38.6 µM and 41.2 µM
